According to PMC3289669, “Capacity for Absorption of Water-Soluble Secondary Metabolites Greater in Birds than in Rodents” (PLoS ONE, 2012):
“And” between values parts separate entries of the source, which are not always exact repeats. Equal entries are not always repeated. Where two headings read alike, the source gives them in different places. One block for each molecule: values may come before it.

Legend:
[1] = Fractional absorption of orally administered probes, both bird species pooled; assay type: in vivo, Onychognathus tristramii and Pycnonotus xanthopygos; conditions: for Fractional absorption (f): oral, both bird species pooled, mean ± SEM
Procedure: (§1) As a measure of passive, paracellular absorption, we used standard methods from pharmacokinetics to measure the whole-organism fractional absorption of water-soluble compounds. As described in more detail, below, metabolically inert probe molecules were injected and also administered orally with a gavage needle to intact animals in separate experiments, and blood and/or urine samples were serially collected and analyzed for the probe molecules by liquid scintillation. Fractional absorption (f) was calculated as [post oral administration AUC]/[ post injection AUC] where AUC = dose-corrected area under the curve of plasma or urine probe amount vs. time. […] In mammals, the probes can be recovered in urine, and estimates of oral absorption take account of possible differential recovery by incorporating data on probes when injected. As shown in Results, recoveries of carbohydrate probes were uniformly high, which is in agreement with measures by others in rats and humans. In birds, plasma is sampled rather than urine, because urine is mixed in the avian cloaca with undigested residue from the intestine. […] In Discussion we elaborate on comparisons between these two procedures and reasons to choose them.
(§2) Also, the rodents were transferred to metabolic cages with wire bottoms and a tray beneath from which to collect clean urine samples. At the beginning of a trial, animals were orally dosed at 1.0% body mass with an isosmotic solution containing L-[^14C]arabinose (∼0.02 µCi/g animal) and either [^3H]3OMD-glucose (∼0.1 µCi/g animal) or [^3H]lactulose (∼0.5 µCi/g animal). Oral dose solutions also contained NaCl (∼90 mM, ∼180 mOsm) and D-glucose (∼90 mM, ∼90 mOsm). NaCl was included in the solution to balance osmolality. Inclusion of Na^+ also provides an essential ion for Na^+-coupled D-glucose absorption, although it is not strictly necessary in this kind of whole-animal study because animals would still absorb nearly all glucose even if the diet is low in Na^+ because additional Na^+ is secreted into the intestinal lumen together with bicarbonate and diffuses from blood. […]
(§3) After administration of radiolabeled probes, birds and rodents were returned to their cages, where birds had ad libitum access to fruit and the rodents had ad libitum access to sucrose solution (10% w/w). […] Scintillation cocktail (Quicksafe A, Zinsser, UK) was added and samples were counted for disintegrations per minute (dpm) by liquid scintillation (Packard Tri-Carb 1600 TR scintillation counter, Packard INC., Meriden CT, USA), with corrections for quench and appearance of ^14C counts in the ^3H channel. […]

[2] = Mono-exponential fit of plasma probe concentrations after injection, Tristram's grackle; assay type: in vivo, Onychognathus tristramii; conditions: dose-corrected plasma concentration, mean ± SEM
Procedure: as §2, §3

[3] = Fractional absorption of orally administered probes by rodents (urine recovery); assay type: in vivo, Acomys cahirinus and Acomys russatus; conditions: for Fractional absorption (f): oral, both rodent species pooled, corrected for post-injection recovery, mean ± SEM
Procedure: as §1
(§4) Also, the rodents were transferred to metabolic cages with wire bottoms and a tray beneath from which to collect clean urine samples. At the beginning of a trial, animals were orally dosed at 1.0% body mass with an isosmotic solution containing L-[^14C]arabinose (∼0.02 µCi/g animal) and either [^3H]3OMD-glucose (∼0.1 µCi/g animal) or [^3H]lactulose (∼0.5 µCi/g animal). Oral dose solutions also contained NaCl (∼90 mM, ∼180 mOsm) and D-glucose (∼90 mM, ∼90 mOsm). NaCl was included in the solution to balance osmolality. Inclusion of Na^+ also provides an essential ion for Na^+-coupled D-glucose absorption, although it is not strictly necessary in this kind of whole-animal study because animals would still absorb nearly all glucose even if the diet is low in Na^+ because additional Na^+ is secreted into the intestinal lumen together with bicarbonate and diffuses from blood. In a separate experimental trial, each animal was injected (0.6% body mass) with isosmotic NaCl solution containing L-[^14C]arabinose (∼0.02 µCi/g animal) and either [^3H]3OMD-glucose (∼0.1 µCi/g animal) or [^3H]lactulose (∼0.1 µCi/g animal). The injection site was the pectoralis muscle in birds and the peritoneal cavity in rodents. Syringes were weighed before and after dosing animals to determine actual dose administered.
(§5) After administration of radiolabeled probes, birds and rodents were returned to their cages, where birds had ad libitum access to fruit and the rodents had ad libitum access to sucrose solution (10% w/w). The purpose was to provide rodents water and some calories and also make them urinate more. Serial blood samples (∼25 µL) were drawn from the brachial vein of birds as described previously at t = 0 (background), 10, 20, 30, 45, 60, 80 or 90, 120, 150 min post-injection or post-oral administration. Plasma was separated using a standard hematocrit centrifuge, placed in scintillation vials and weighed. […] Scintillation cocktail (Quicksafe A, Zinsser, UK) was added and samples were counted for disintegrations per minute (dpm) by liquid scintillation (Packard Tri-Carb 1600 TR scintillation counter, Packard INC., Meriden CT, USA), with corrections for quench and appearance of ^14C counts in the ^3H channel. […]

[4] = Recovery of injected probes in urine, both rodent species pooled; assay type: in vivo; conditions: Acomys cahirinus and Acomys russatus (pooled), intraperitoneal, data for both rodent species pooled, post-injection, read-out: Recovery of injected probe in urine, 95% C.I.
Procedure: as §1
Also, the rodents were transferred to metabolic cages with wire bottoms and a tray beneath from which to collect clean urine samples. At the beginning of a trial, animals were orally dosed at 1.0% body mass with an isosmotic solution containing L-[^14C]arabinose (∼0.02 µCi/g animal) and either [^3H]3OMD-glucose (∼0.1 µCi/g animal) or [^3H]lactulose (∼0.5 µCi/g animal). […]
as §3

[5] = Fractional absorption of orally administered probes by Tristram's grackle (plasma AUC); assay type: in vivo, Onychognathus tristramii; conditions: oral; for Tmax: Onychognathus tristramii, plasma, read-out: Time of peak plasma level post oral administration; for Fractional absorption (f): AUCoral/AUCinj, mean ± SEM
Procedure: as §1, §4, §5

[6] = set-up: method as in PMID 17644690; conditions: laboratory rats; cited from earlier work
[7] = set-up: method as in earlier work; conditions: house sparrows; cited from earlier work
[8] = set-up: method as in PMID 17644690; conditions: rock doves; cited from earlier work
[9] = set-up: method as in PMID 2167807; conditions: humans, corrected for incomplete urine recovery; cited from earlier work
[10] = Fractional absorption of orally administered probes by yellow-vented bulbul (plasma AUC); assay type: in vivo, Pycnonotus xanthopygos; conditions: oral; for Tmax: Pycnonotus xanthopygos, plasma, read-out: Time of peak plasma level post oral administration (converted); for Fractional absorption (f): AUCoral/AUCinj, mean ± SEM
Procedure: as §1, §4, §5

[11] = Mono-exponential fit of plasma probe concentrations after injection, yellow-vented bulbul; assay type: in vivo, Pycnonotus xanthopygos; conditions: dose-corrected plasma concentration, mean ± SEM
Procedure: as §2, §3

[12] = Recovery of injected probes in urine of common spiny mice; assay type: in vivo; conditions: Acomys cahirinus (common spiny mouse), ip; A. cahirinus, intraperitoneal injection, cumulative urine recovery, mean ± SEM; read-out: Recovery of injected probe in urine
Procedure: (§6) As a measure of passive, paracellular absorption, we used standard methods from pharmacokinetics to measure the whole-organism fractional absorption of water-soluble compounds. As described in more detail, below, metabolically inert probe molecules were injected and also administered orally with a gavage needle to intact animals in separate experiments, and blood and/or urine samples were serially collected and analyzed for the probe molecules by liquid scintillation. Fractional absorption (f) was calculated as [post oral administration AUC]/[ post injection AUC] where AUC = dose-corrected area under the curve of plasma or urine probe amount vs. time. […] In mammals, the probes can be recovered in urine, and estimates of oral absorption take account of possible differential recovery by incorporating data on probes when injected. […]
as §3

[13] = Recovery of injected probes in urine of golden spiny mice; assay type: in vivo; conditions: Acomys russatus (golden spiny mouse), ip; A. russatus, intraperitoneal injection, cumulative urine recovery, mean ± SEM; read-out: Recovery of injected probe in urine
Procedure: as §6, §3

[14] = in vivo; cited from earlier work
[15] = set-up: method as in PMID 18025481; conditions: rats, cited from earlier work
[16] = test system: whole-animal glucose absorption; set-up: method as in PMID 20145981; conditions: American robins; cited from earlier work
[17] = test system: whole-animal glucose absorption; set-up: method as in PMID 20145981; conditions: laboratory rats, cited from earlier work
[18] = rock doves, area under the curve calculations; ref F. D. Cid, E. Caviedes-Vidal and W.H. Karasov, unpubl. observations; cited from earlier work
[19] = rock doves, nicotine in cationic water-soluble form, predicted from MW size-dependence of paracellular absorption
Source text: These factors of molecule size, charge, and associated nutrients help define the conditions under which water-soluble SMs may be best absorbed.

Fractional absorption (f) [1]: 1.03±0.17 and 1.03±0.07 | A, mono-exponential fit Ct = A e^−αt [2]: 25.1±3.1 mg^−1 plasma | Fractional absorption (f) [3]: 0.37 | Fractional absorption (f) ([3]; listed as arabinose): 0.37±0.06 | dose excreted [4]: 81 to 93% | Tmax [5]: ≤ 10 min | Fractional absorption (f) [5]: 0.98±0.07 | Tmax [10]: ≤ 10 min | Fractional absorption (f) [10]: 1.10±0.15 | A, mono-exponential fit Ct = A e^−αt [11]: 73.1±4.2 mg^−1 plasma
SMILES: OC1OC[C@H](O)[C@H](O)[C@H]1O (mixture of isomers) [L-arabinose]
Fractional absorption (f) [6]: 0.34 | Fractional absorption (f) [7]: 0.61 | Fractional absorption (f) [8]: 0.61 | Fractional absorption (f) [9]: 0.26

Fractional absorption (f) [1]: 0.17±0.06 | Fractional absorption (f) [3]: 0.085±0.021 | dose excreted [4]: 90 to 97% | Fractional absorption (f) [5]: 0.069±0.011 | Fractional absorption (f) [10]: 0.30±0.10
SMILES: OC[C@H]1O[C@@H](O[C@@H]2[C@@H](CO)OC(O)(CO)[C@H]2O)[C@H](O)[C@@H](O)[C@H]1O (mixture of isomers) [lactulose]

Ratio f L-arabinose/f 3OMD-glucose (proportion of 3OMD-glucose absorption that is passive) ([1]; birds, corrected for difference in MW): 1 | Fractional absorption (f) [1]: 0.88±0.08 | A, mono-exponential fit Ct = A e^−αt [2]: 22.6±3.0 mg^−1 plasma | dose excreted [12]: 100 ± 1% | Fractional absorption (f) [3]: 0.95±0.01 | Ratio f L-arabinose/f 3OMD-glucose (proportion of 3OMD-glucose absorption that is passive) ([3]; rodents, corrected for difference in MW): 0.34 | dose excreted [4]: 96 to 101% | Tmax [5]: 40 to 50 min | Fractional absorption (f) [5]: 0.95±0.08 | dose excreted [13]: 93 ± 3% | Tmax [10]: 30 min | Fractional absorption (f) [10]: 0.80±0.19 | A, mono-exponential fit Ct = A e^−αt [11]: 81.1±10.4 mg^−1 plasma
SMILES: CO[C@@H]([C@H](O)[C@H](O)CO)[C@@H](O)C=O [3-O-methyl-D-glucose]

SMILES: O=C[C@@H](O)[C@H](O)[C@@H](O)[C@@H](O)CO [L-glucose]
Share of glucose absorption accounted for by L-glucose (passive) [14]: 50 to >90

SMILES: C[C@H](O)[C@H](O)[C@@H](O)[C@@H](O)C=O [L-rhamnose]
Fractional absorption ([15]; estimate from serially sampling blood): 0.24±0.03 | Fractional absorption ([15]; measured by urine recovery): 0.22±0.03

SMILES: O=c1c(OC2OC(CO)C(O)C(O)C2O)c(-c2ccc(O)c(O)c2)oc2cc(O)cc(O)c12 (centres unmarked) [isoquercetrin]
Effect on glucose absorption [16]: not in robins | Effect on glucose absorption [17]: significantly decreased glucose absorption

SMILES: CN1CCC[C@H]1c1cccnc1 [nicotine]
Absorption of a dose [18]: 44±3% | Predicted absorption of a dose [19]: around 40%

SMILES: O=C(CCc1ccc(O)cc1)c1c(O)cc(O)cc1O[C@@H]1O[C@H](CO)[C@@H](O)[C@H](O)[C@H]1O [phloridzin]
Effect on glucose absorption [16]: did not significantly decrease glucose absorption | Inhibition of whole-animal glucose absorption efficiency ([17]; 10 mM): > 36%
